Test results as given in ChEMBL document CHEMBL1148572, “1-((S)-2-aminopropyl)-1H-indazol-6-ol: a potent peripherally acting 5-HT2 receptor agonist with ocular hypotensive activity” (J Med Chem, 2006).

How the values were obtained:
[1] = target: 5-hydroxytryptamine receptor 1B (Homo sapiens, UniProt P28222); assay: Inhibitory activity against 5HT1B receptor
[2] = target: Alpha-1B adrenergic receptor (Homo sapiens, UniProt P35368); assay: Inhibitory activity against adrenergic alpha-1B receptor
[3] = target: Voltage-dependent N-type calcium channel subunit alpha-1B (Homo sapiens) (UniProt Q00975); assay: Inhibitory activity at Calcium channel N type at 10 uM
[4] = target: Substance-P receptor (Homo sapiens) (UniProt P25103); assay: Inhibition of neurokinin 1 receptor at 10 uM
[5] = target: Adenosine receptor (Homo sapiens) (UniProt P30542+P29275+P0DMS8+P29274); assay: Inhibition of non selective binding to adenosine receptor at 1 nM; format: protein assay
[6] = target: T1, B2 bradykinin receptor (Homo sapiens) (UniProt P30411); assay: Inhibition of bradykinin 2 receptor at 10 uM
T1 sequence (whole entry): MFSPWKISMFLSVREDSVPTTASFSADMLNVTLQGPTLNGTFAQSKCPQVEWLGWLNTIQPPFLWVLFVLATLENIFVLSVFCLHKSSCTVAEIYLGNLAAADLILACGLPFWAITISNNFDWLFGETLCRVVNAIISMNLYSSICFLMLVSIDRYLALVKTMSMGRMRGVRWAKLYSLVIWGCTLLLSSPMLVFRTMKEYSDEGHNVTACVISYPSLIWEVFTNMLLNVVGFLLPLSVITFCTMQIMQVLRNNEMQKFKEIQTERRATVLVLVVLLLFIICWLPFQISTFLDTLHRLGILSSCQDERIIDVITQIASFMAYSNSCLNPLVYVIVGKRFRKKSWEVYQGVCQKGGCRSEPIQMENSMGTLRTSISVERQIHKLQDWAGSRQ

[7] = target: 5-hydroxytryptamine receptor 2A (Rattus norvegicus, UniProt P14842); format: tissue-based, Cerebral cortex
[8] = target: T2, 5-hydroxytryptamine receptor 1A (Homo sapiens) (UniProt P08908); assay: Inhibition of forskolin activated adenylate cyclase at 10 uM; format: functional
T2 sequence (whole entry): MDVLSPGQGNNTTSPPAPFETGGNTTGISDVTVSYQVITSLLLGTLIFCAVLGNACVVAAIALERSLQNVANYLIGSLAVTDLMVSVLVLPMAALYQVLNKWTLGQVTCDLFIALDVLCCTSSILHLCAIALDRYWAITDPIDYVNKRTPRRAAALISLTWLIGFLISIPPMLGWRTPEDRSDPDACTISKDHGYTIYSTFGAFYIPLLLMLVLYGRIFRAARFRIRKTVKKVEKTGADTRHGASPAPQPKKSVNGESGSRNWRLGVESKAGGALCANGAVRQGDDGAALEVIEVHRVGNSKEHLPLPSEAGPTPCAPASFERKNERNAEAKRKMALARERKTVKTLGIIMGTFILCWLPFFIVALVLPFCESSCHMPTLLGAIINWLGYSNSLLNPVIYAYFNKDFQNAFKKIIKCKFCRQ

[9] = target: T3, 5-hydroxytryptamine receptor 1A (Homo sapiens, UniProt P08908); assay: Displacement of [3H]8-OH-DPAT from recombinant human 5HT1A receptor expressed in CHO cells; format: cell-based
T3 sequence (P08908 whole entry): T2 sequence (whole entry)

[10] = target: Protein kinase C, PKC; classical/novel (Homo sapiens) (UniProt O94806+P17252+P05129+Q05655+P05771+Q02156+P24723+Q15139+Q04759); assay: Inhibition of PDBu activated protein kinase C at 10 uM; format: protein assay
[11] = target: GABA-A receptor; benzodiazepine site (Homo sapiens) (UniProt P14867+P18507+P48169+Q99928+P34903+Q8N1C3+P47869+P31644+Q16445); assay: Inhibition of central benzodiazepine site on GABAA receptor at 10 uM; format: protein-complex assay
[12] = target: T4, Muscarinic acetylcholine receptor (Homo sapiens) (UniProt P20309+P08173+P11229+P08172+P08912); assay: Inhibition of non selective binding to muscarinic receptor at 10 uM; format: protein assay
[13] = Inhibition of alpha-bungarotoxin insensitive nicotinic receptor at 10 uM
[14] = target: Glutamate receptor ionotropic kainate (Homo sapiens) (UniProt P39086+Q16478+Q16099+Q13002+Q13003); assay: Inhibition of kainate receptor at 10 uM; format: protein-complex assay
[15] = target: Platelet-activating factor receptor (Homo sapiens) (UniProt P25105); assay: Inhibition of PAF at 1 nM
[16] = Inhibition of non selective binding to VIP at 100 nM
[17] = target: 5-hydroxytryptamine receptor 2B (Homo sapiens, UniProt P41595); assay: biochemical
Description: Displacement of [125I]DOI from cloned human 5HT2B receptor expressed in CHO cells

[18] = target: T5, Alpha-2A adrenergic receptor (Homo sapiens, UniProt P08913); assay: Displacement of [3H]clonidine from cloned human adrenergic alpha2A receptor expressed in Sf9 cells
T5 sequence (P08913 whole entry): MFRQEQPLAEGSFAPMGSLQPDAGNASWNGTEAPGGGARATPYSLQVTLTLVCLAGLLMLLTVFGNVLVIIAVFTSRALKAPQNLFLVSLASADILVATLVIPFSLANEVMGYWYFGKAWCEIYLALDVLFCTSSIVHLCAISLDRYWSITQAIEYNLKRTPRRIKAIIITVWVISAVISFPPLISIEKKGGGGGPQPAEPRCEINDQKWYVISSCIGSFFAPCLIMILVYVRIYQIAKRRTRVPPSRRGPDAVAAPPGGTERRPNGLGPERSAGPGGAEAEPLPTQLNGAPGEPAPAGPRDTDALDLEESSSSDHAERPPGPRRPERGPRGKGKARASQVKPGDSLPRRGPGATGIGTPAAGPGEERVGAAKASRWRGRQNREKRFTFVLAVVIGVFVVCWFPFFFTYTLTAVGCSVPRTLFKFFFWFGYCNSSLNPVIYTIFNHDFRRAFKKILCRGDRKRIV

[19] = target: T6, monoamine oxidase B (MAO-B) (Rattus norvegicus, UniProt P19643); assay: Inhibition of monoamine oxidase B in rat brain at 10 uM; format: tissue-based
T6 sequence (P19643 whole entry): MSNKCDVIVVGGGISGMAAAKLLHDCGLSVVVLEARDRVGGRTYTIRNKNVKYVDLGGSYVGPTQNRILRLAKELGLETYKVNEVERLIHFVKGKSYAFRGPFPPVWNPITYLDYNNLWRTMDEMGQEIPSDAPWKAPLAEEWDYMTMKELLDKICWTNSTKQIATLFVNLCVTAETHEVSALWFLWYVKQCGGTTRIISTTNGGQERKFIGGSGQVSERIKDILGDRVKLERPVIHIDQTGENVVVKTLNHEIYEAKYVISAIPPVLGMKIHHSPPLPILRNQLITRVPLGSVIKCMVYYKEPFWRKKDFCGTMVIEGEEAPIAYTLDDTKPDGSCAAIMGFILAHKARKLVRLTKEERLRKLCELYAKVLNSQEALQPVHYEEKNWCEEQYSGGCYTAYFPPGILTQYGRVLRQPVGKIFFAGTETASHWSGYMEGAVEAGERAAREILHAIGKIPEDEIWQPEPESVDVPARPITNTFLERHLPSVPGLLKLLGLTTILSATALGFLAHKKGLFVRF

[20] = target: Platelet-activating factor receptor (Homo sapiens) (UniProt P25105); assay: Inhibition of PAF at 100 nM
[21] = target: T4, Muscarinic acetylcholine receptor (Homo sapiens); assay: Inhibition of non selective binding to muscarinic receptor at 100 nM; format: protein assay

Sequence of Platelet-activating factor receptor (Homo sapiens) (P25105 whole entry): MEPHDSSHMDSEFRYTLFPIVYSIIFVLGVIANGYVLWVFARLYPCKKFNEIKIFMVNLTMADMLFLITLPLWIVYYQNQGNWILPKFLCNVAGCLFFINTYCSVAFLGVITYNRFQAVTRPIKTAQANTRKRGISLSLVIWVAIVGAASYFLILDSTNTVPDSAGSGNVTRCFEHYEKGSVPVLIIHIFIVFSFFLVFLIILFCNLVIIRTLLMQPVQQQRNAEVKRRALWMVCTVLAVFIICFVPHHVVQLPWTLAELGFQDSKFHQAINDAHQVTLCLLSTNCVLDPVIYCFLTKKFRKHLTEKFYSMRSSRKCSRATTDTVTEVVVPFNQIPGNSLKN
Sequence of Alpha-1B adrenergic receptor (P35368 whole entry): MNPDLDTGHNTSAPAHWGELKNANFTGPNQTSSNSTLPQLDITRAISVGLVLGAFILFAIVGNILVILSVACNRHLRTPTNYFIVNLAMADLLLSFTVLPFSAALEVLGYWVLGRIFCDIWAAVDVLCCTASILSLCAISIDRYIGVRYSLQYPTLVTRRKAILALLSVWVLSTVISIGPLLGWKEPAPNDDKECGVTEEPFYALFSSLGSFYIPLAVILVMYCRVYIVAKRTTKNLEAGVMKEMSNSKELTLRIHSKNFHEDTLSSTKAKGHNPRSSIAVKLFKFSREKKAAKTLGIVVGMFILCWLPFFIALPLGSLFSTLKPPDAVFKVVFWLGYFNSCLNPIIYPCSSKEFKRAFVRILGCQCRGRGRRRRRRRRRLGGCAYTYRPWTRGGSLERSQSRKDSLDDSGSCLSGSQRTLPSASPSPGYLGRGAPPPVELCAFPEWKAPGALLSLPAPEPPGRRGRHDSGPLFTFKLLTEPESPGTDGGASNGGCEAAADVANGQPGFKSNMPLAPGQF
Sequence of 5-hydroxytryptamine receptor 2B (P41595 whole entry): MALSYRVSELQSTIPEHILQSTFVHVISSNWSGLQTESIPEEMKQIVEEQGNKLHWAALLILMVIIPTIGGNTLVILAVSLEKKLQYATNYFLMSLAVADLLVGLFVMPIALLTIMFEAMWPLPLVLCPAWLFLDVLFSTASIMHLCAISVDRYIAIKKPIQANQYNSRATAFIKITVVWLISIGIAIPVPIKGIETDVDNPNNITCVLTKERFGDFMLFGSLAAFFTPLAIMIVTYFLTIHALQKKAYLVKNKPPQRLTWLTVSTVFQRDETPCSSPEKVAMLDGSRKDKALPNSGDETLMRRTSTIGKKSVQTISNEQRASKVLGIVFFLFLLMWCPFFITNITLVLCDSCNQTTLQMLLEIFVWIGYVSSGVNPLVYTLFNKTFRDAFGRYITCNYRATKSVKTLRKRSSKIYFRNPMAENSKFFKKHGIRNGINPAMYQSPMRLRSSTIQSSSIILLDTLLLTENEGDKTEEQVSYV
Sequence of 5-hydroxytryptamine receptor 1B (P28222 whole entry): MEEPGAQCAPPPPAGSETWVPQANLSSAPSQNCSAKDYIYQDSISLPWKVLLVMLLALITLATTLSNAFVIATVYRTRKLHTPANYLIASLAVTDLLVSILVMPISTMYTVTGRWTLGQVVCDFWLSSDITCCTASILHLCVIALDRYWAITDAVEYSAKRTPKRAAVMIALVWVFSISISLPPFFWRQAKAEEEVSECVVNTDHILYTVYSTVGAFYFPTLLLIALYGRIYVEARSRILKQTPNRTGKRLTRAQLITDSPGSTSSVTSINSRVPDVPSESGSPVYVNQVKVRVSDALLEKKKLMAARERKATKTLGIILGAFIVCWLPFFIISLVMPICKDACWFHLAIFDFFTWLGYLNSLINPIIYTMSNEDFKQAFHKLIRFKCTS
Sequence of Substance-P receptor (Homo sapiens) (P25103 whole entry): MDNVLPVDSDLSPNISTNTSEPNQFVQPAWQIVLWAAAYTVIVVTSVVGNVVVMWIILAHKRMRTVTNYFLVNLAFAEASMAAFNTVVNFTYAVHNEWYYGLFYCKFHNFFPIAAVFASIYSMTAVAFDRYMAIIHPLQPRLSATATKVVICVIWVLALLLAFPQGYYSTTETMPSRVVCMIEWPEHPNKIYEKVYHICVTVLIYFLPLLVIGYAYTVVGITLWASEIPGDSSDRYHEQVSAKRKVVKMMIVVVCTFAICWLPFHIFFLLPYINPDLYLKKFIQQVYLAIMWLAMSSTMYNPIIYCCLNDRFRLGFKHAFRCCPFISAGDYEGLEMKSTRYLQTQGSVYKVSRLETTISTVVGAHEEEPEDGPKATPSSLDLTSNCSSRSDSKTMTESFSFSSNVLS
Sequence of 5-hydroxytryptamine receptor 2A (P14842 whole entry): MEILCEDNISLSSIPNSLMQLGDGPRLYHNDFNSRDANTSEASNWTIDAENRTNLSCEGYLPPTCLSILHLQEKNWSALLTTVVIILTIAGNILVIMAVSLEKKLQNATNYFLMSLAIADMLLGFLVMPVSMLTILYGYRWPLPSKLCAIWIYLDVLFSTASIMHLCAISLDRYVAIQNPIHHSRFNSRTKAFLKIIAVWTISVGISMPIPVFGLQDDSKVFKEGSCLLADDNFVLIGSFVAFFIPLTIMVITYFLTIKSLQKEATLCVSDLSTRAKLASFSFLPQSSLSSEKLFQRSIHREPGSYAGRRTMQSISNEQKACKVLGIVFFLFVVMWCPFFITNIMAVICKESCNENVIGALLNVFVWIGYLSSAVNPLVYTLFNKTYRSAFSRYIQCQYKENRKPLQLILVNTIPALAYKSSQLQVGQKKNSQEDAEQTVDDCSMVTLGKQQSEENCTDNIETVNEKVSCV
Sequence of Adenosine receptor (Homo sapiens) (P0DMS8 whole entry, looked up): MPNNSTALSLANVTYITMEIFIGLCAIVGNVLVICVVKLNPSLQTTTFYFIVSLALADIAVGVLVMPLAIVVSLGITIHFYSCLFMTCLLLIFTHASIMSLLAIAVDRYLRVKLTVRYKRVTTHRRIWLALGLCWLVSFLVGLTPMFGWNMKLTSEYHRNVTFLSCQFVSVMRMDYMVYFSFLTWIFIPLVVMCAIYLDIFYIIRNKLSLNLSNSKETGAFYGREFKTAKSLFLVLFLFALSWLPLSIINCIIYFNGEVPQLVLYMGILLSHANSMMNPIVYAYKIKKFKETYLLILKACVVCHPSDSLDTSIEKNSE
Sequence of Adenosine receptor (Homo sapiens) (P29274 whole entry, looked up): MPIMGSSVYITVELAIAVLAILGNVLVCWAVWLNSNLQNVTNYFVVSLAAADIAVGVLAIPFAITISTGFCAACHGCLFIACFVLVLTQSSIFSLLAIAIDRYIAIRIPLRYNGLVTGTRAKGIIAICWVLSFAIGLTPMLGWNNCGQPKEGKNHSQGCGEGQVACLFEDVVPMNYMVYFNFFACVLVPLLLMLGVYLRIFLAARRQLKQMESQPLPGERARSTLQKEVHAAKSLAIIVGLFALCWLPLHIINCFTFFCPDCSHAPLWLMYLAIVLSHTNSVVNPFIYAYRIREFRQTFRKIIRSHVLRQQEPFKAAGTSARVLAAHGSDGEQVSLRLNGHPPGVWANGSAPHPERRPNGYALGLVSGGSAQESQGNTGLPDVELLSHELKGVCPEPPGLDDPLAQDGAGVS
Sequence of Adenosine receptor (Homo sapiens) (P29275 whole entry, looked up): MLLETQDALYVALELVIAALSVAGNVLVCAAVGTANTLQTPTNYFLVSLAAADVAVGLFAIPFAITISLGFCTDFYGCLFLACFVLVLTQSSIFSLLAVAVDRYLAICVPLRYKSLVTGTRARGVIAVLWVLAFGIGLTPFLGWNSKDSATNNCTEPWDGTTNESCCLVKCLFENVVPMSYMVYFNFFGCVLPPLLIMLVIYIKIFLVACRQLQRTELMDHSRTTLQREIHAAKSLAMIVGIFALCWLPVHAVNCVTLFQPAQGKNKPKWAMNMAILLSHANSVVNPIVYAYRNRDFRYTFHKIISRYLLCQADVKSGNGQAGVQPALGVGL
Sequence of Adenosine receptor (Homo sapiens) (P30542 whole entry, looked up): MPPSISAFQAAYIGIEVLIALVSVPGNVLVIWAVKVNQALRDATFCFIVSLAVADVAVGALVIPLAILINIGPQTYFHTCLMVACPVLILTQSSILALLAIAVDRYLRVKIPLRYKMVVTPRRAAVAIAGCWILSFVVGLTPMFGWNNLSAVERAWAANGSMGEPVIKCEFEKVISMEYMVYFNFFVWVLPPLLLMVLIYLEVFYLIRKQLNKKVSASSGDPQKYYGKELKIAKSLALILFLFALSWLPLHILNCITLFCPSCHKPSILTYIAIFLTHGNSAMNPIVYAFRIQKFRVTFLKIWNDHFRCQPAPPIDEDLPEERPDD

## C[C@H](N)Cn1ncc2ccc(O)cc21
[1]
  Ki: > 10000 nM
[2]
  Ki: > 30000 nM
[3]
  inhibition: 15.4%
[4]
  inhibition: 33%
[5]
  inhibition: 11.2%
[6]
  inhibition: 0.11%
[7]
  IC50: 0.58 nM
[8]
  inhibition: 4.1%
[9]
  Ki: 141 nM
[10]
  inhibition: 22.8%
[11]
  inhibition: 22.8%
[12]
  inhibition: 12.2%
[13]
  inhibition: 7.7%
[14]
  inhibition: 6.62%
[15]
  inhibition: -6.53%
[16]
  inhibition: 5.41%
[17]
  Ki: 8.1 nM
[18]
  Ki: 2270 nM
[19]
  inhibition at 10 µM: -18.4%
[20]
  inhibition: 24.8%
[21]
  inhibition: 0.28%
